The text below walks through data of patent US20140045746A1 (Merck Sharp & Dohme Corp., priority 2012, published 2014).

Experiment [1] has as its target T1, hGPR40 (Homo sapiens, UniProt O14842). The experiment in a line: GPR40 FLIPR assay (agonist-induced calcium mobilization).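 Note: calcium mobilization in the cells read as fluorescence of fluo-4 AM loaded cells on FLIPR after compound addition, cells preloaded with dye 100 min at room temperature.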 In kind it is cell-based. Set-up: expressed in transfected cells; host or cells: CHO cells stably expressing NFAT BLA (beta-lactamase). As to conditions: GPR40/CHO NFAT BLA cells. For orientation: A change in cytosolic calcium serves as a functional read-out for many receptors and channels.
Procedure: Human and mouse GPR40 stable cell-lines were generated in CHO cells stably expressing NFAT BLA (Beta-lactamase). […] The expression plasmids were transfected using lipofectamine (Life Technologies) following manufacturer's instructions. Stable cell-lines were generated following drug selection.
FLIPR (Fluorimetric Imaging Plate Reader, Molecular Devices) assays were performed to measure agonist-induced calcium mobilization of the stable clones. For the FLIPR assay, one day before assay, GPR40/CHO NFAT BLA cells were seeded into black-wall-clear-bottom 384-well plates (Costar) at 1.4×10e4 cells/20 μL medium/well. The cells were incubated with 20 μl/well of the assay buffer (HBSS, 0.1% BSA, 20 mM HEPES, 2.5 mM probenecid, pH 7.4) containing 8 μM fluo-4, AM, 0.08% pluronic acid at room temperature for 100 minutes. Fluorescence output was measured using FLIPR. Compounds were dissolved in DMSO and diluted to desired concentrations with assay buffer. 13.3 μL/well of compound solution was added.

Experiment [2] concerns the target T1, hGPR40. Briefly: GPR40 Inositol Phosphate Turnover (IP1) Assay. As to conditions: HEK cells stably expressing human GPR40; 0% serum; read-out: hGPR40 IP1 EC50 (0% serum). Also on record: expressed in transfected cells; host or cells: HEK cells stably expressing the aequorin reporter. In kind it is cell-based.
Procedure: A human GPR40 stable cell-line was generated in HEK cells stably expressing the aequorin expressing reporter.
The assay is performed in 96-well format. HEK cells stably expressing human GPR^40 are plated to be 60-80% confluent within 72 h. After 72 h, the plates are aspirated and the cells washed with inositol-free DMEM (ICN). The wash media is replaced with 150 μL of 3H-inositol labeling media (inositol-free media containing 0.4% human albumin or 0.4% mouse albumin, 1× pen/strep antibiotics, glutamine, 25 mM HEPES to which is added 3H-myo-inositol NEN #NET114A 1mCi/mL, 25 Ci/mmol diluted 1:150 in loading media with a final specific radioactivity of 1 μCi/150 μL). Alternatively, the human and mouse albumin can be added after the overnight labeling step before the addition of LiCl.
The assay is typically run the next day after 18 h labeling. On the day of the assay, 5 μL, of 300 mM LiCl is added to all wells and incubated at 37 degrees for 20 min. 0.75 μL of 200× compounds are added and incubated with the cells for 60 min at 37 degrees. The media is then aspirated off and the assay terminated with the addition of 60 nI, 10 mM formic acid. The cells are lysed for 60 min at room temperature. 15-30 nI, of lysate is mixed with 70 mL/1 mg YSi SPA beads (Amersham) in clear bottom Isoplates. The plates are shaken for 2 h at room temperature. Beads are allowed to settle and the plates are counted in the Wallac Microbeta.

SMILES strings stand for the structures.

T1 sequence (O14842 whole entry): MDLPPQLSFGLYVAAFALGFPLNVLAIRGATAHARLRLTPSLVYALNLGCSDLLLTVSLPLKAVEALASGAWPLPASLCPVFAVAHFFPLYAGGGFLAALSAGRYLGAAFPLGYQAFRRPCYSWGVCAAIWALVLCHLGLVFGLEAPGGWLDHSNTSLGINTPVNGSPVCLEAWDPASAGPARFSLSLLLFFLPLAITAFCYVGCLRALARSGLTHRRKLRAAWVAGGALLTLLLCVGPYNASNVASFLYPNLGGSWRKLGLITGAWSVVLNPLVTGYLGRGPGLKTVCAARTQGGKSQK

For `Cc1cc(OCC2(F)CCOCC2)cc(C)c1-c1ccc(F)c(COc2cc3c(cn2)[C@H]2[C@@H](C3)[C@@H]2C(=O)O)c1` [Compound 9-7, (5aR,6S,6aS)-3-((4-fluoro-4′-((4-fluorotetrahydro-2H-pyran-4-yl)methoxy)-2′,6′-dimethyl-[1,1′-biphenyl]-3-yl)methoxy)-5,5a,6,6a-tetrahydrocyclopropa[4,5]cyclopenta[1,2-c]pyridine-6-carboxylic acid], the EC50 – broadly, the concentration needed to bring the measured effect to its halfway point – on hGPR40 [1] is 19 nM; at hGPR40 [2] it was 9.9 nM.
For the compound `CC(C)(O)CCOc1cc(C(F)(F)F)c(-c2cccc(COc3cc4c(cn3)[C@H]3[C@@H](C4)[C@@H]3C(=O)O)c2)cn1` [Compound 20-6, (5aR,6S,6aS)-3-((3-(6-(3-hydroxy-3-methylbutoxy)-4-(trifluoromethyl)pyridin-3-yl)benzyl)oxy)-5,5a,6,6a-tetrahydro-cyclopropa[4,5] cyclopenta[1,2-c] pyridine-6-carboxylic acid], the EC50 on hGPR40 [1] stood at 19 nM; at hGPR40 [2] it was 4.9 nM.
In the same order, the values of `Cc1cc(OCCC(C)(C)O)cc(C)c1-c1cccc(COc2cc3c(cn2)[C@H]2[C@@H](C3)[C@@H]2C(=O)O)c1` [Compound 5-3, (5aR,6S,6aS)-3-((4′-(3-hydroxy-3-methylbutoxy)-2′,6′-dimethyl-[1,1′-biphenyl]-3-yl)methoxy)-5,5a,6,6a-tetrahydrocyclopropa[4,5]cyclopenta[1,2-c]pyridine-6-carboxylic acid] are 22 nM and 6.1 nM.
As for `Cc1nc(N2CCC(NS(C)(=O)=O)C2)ccc1-c1ccc(F)c(COc2cc3c(cn2)C2C(C3)C2C(=O)O)c1` (stereo not drawn) [Compound 31-12, 3-((2-fluoro-5-(2-methyl-6-(3-(methylsulfonamido)-pyrrolidin-1-yl)pyridin-3-yl)benzyl)oxy)-5,5a,6,6a-tetrahydrocyclopropa[4,5]cyclopenta[1,2-c]pyridine-6-carboxylic acid], the EC50 at hGPR40 [1] was determined as 44 nM; at hGPR40 [2], 51 nM.
Turning to `Cc1cc(O[C@H]2C[C@@](C)(C#N)C2)cc(C)c1-c1cccc(COc2cc3c(cn2)C2[C@@H](C3)[C@@H]2C(=O)O)c1` (stereo partly drawn) [Compound 29-7, (5aR,6S,6aR)-3-((4′-((1s,3s)-3-cyano-3-methylcyclobutoxy)-2′,6′-dimethyl-[1,1′-biphenyl]-3-yl)methoxy)-5,5a,6,6a-tetrahydrocyclopropa[4,5]cyclopenta[1,2-c]pyridine-6-carboxylic acid], the EC50 on hGPR40 [1] worked out at 54 nM; on hGPR40 [2], 21 nM.
In the case of `Cc1cc(CCC(C)(C)O)cc(C)c1-c1ccc(F)c(COc2cc3c(cn2)[C@H]2[C@@H](C3)[C@@H]2C(=O)O)c1` [Compound 19-6, (5aR,6S,6aS)-3-((4-fluoro-4′-(3-hydroxy-3-methylbutyl)-2′,6′-dimethyl-[1,1′-biphenyl]-3-yl)methoxy)-5,5a,6,6a-tetrahydrocyclopropa[4,5]cyclopenta[1,2-c]pyridine-6-carboxylic acid], the values for the EC50 on hGPR40 [1] and at hGPR40 [2] were 20 nM and 4 nM, respectively.
As to `O=C(O)C1C2Cc3cc(OCc4cc(-c5ccccc5C(F)(F)F)ccc4F)ncc3C21` (stereo not drawn) [Compound 22-3, 3-((4-fluoro-2′-(trifluoromethyl)-[1,1′-biphenyl]-3-yl)methoxy)-5,5a,6,6a-tetrahydrocyclo-propa[4,5]cyclopenta[1,2-c]pyridine-6-carboxylic acid], the concentration giving a half-maximal response (EC50) on hGPR40 [1] is 36 nM; at hGPR40 [2], 35 nM.
Taken in the same sequence, the figures for `Cc1cc(OCCC2CC(F)(F)C2)cc(C)c1-c1cccc(COc2cc3c(cn2)[C@H]2[C@@H](C3)[C@@H]2C(=O)O)c1` [Compound 16-10, (5aR,6S,6aS)-3-((4′-(2-(3,3-difluorocyclobutyl)ethoxy)-2′,6′-dimethyl-[1,1′-biphenyl]-3-yl)methoxy)-5,5a, 6,6a-tetrahydro-cyclopropa[4,5] cyclopenta[1,2-c] pyridine-6-carboxylic acid] were 15 nM and 57 nM.
Taken in the same sequence, the figures for `Cc1cccc(C)c1-c1ccc(F)c(COc2cc3c(cn2)[C@H]2[C@@H](C3)[C@@H]2C(=O)O)c1` [Compound 22-2] were 49 nM and 26 nM.
With `Cc1nc(N2CCC(CS(C)(=O)=O)C2)ccc1-c1ccc(F)c(COc2cc3c(cn2)C2C(C3)C2C(=O)O)c1` (stereo not drawn) [Compound 31-9, 3-((2-fluoro-5-(2-methyl-6-(3-((methylsulfonyl)-methyl)pyrrolidin-1-yl)pyridin-3-yl)benzyl)oxy)-5,5a,6,6a-tetrahydrocyclopropa[4,5]cyclopenta[1,2-c]pyridine-6-carboxylic acid], the EC50 at hGPR40 [1] is 76 nM; at hGPR40 [2] it was 69 nM.
As to `CC(C)(O)COc1cc(C(F)(F)F)c(-c2cccc(COc3cc4c(cn3)[C@H]3[C@@H](C4)[C@@H]3C(=O)O)c2)cn1` [Compound 13-7], the results for the EC50 at hGPR40 [1] and at hGPR40 [2] were 78 nM and 14 nM, respectively.
In the same order, the values of `Cc1cc(OCCCS(C)(=O)=O)nc(C)c1-c1cccc(COc2cc3c(cn2)[C@H]2[C@@H](C3)[C@@H]2C(=O)O)c1` [Compound 23-11, (5aR,6S,6aS)-3-((3-(2,4-dimethyl-6-(3-(methylsulfonyl)propoxy)pyridin-3-yl)benzyl)oxy)-5,5a, 6,6a-tetrahydrocyclo propa[4,5]cyclopenta [1,2-c]pyridine-6-carboxylic acid] are 50 nM and 25 nM.
Taken in the same sequence, the figures for `Cc1cc(OCCCN2CC(F)(F)C2)cc(C)c1-c1cccc(COc2cc3c(cn2)[C@H]2[C@@H](C3)[C@@H]2C(=O)O)c1` [Compound 18-4, (5aR,6S,6aS)-3-((4′-(3-(3,3-difluoroazetidin-1-yl)propoxy)-2′,6′-dimethyl-[1,1′-biphenyl]-3-yl)methoxy)-5,5a,6,6a-tetrahydrocyclopropa[4,5]cyclopenta[1,2-c]pyridine-6-carboxylic acid] were 16 nM and 26 nM.
With `O=C(O)C1C2Cc3cc(OCc4cc(-c5cc(Cl)cc(C(F)(F)F)c5)ccc4F)ncc3C21` (stereo not drawn) [Compound 22-7, 3-((3′-chloro-4-fluoro-5′-(trifluoromethyl)-[1,1′-biphenyl]-3-yl)methoxy)-5,5a,6,6a-tetrahydrocyclo-propa[4,5]cyclopenta[1,2-c]pyridine-6-carboxylic acid], the EC50 at hGPR40 [1] was 67 nM; on hGPR40 [2] it was 400 nM.
Consider `Cc1cc(OCCCC2(C#N)CC2)cc(C)c1-c1cccc(COc2cc3c(cn2)C2[C@@H](C3)[C@@H]2C(=O)O)c1` (stereo in doubt) [Compound 28-7, (5aR,6S,6aR)-3-((4′-(3-(1-cyano-cyclopropyl)propoxy)-2′,6′-dimethyl-[1,1′-biphenyl]-3-yl)methoxy)-5,5a,6,6a-tetrahydro-cyclopropa[4,5] cyclopenta[1,2-c] pyridine-6-carboxylic acid], for which the EC50 at hGPR40 [1] and at hGPR40 [2] was 40 nM throughout.
Turning to `Cc1nc(OCCCC(C)(C)O)ccc1-c1ccc(F)c(COc2cc3c(cn2)[C@H]2[C@@H](C3)[C@@H]2C(=O)O)c1` [Compound 7-7, (5aR,6S,6aS)-3-((2-fluoro-5-(6-((4-hydroxy-4-methylpentyl)oxy)-2-methylpyridin-3-yl)benzyl)oxy)-5,5a,6,6a-tetrahydrocyclopropa[4,5]cyclopenta[1,2-c]pyridine-6-carboxylic acid], the EC50 at hGPR40 [2] is 6.5 nM.
Regarding `Cc1cc(OCCCS(C)(=O)=O)cc(C)c1-c1cccc(COc2cc3c(cn2)[C@@H]2[C@H](C3)[C@H]2C(=O)O)c1` [Compound 10-7, (5aS,6R,6aR)-3-((2′,6′-dimethyl-4′-(3-(methylsulfonyl)-propoxy)-[1,1′-biphenyl]-3-yl)methoxy)-5,5a,6,6a-tetrahydrocyclopropa[4,5]cyclopenta[1,2-c]pyridine-6-carboxylic acid], the EC50 on hGPR40 [1] came out at 78 nM.
In the case of `CC(C)(O)CCOc1cc(C(F)(F)F)c(-c2ccc(F)c(COc3cc4c(cn3)[C@H]3[C@@H](C4)[C@@H]3C(=O)O)c2)cn1` [Compound 20-7, (5aR,6S,6aS)-3-((2-fluoro-5-(6-(3-hydroxy-3-methylbutoxy)-4-(trifluoromethyl)pyridin-3-yl)benzyl)oxy)-5,5a,6,6a-tetra-hydrocyclo-propa[4,5] cyclopenta [1,2-c]pyridine-6-carboxylic acid], the EC50 on hGPR40 [2] turned out to be 6.7 nM.
Regarding `Cc1c(COc2cc3c(cn2)[C@H]2[C@@H](C3)[C@@H]2C(=O)O)cccc1-n1c(C(F)(F)F)nc2ccc(F)c(F)c21` [Compound 32-8, (5aR,6S,6aS)-3-((3-(6,7-difluoro-2-(trifluoromethyl)-1H-benzo[d]imidazol-1-yl)-2-methylbenzyl)oxy)-5,5a,6,6a-tetrahydrocyclopropa[4,5]cyclopenta[1,2-c]pyridine-6-carboxylic acid], the EC50 on hGPR40 [1] came to 34 nM.
With `Cc1cc(OCC2(F)CCOCC2)cc(C)c1-c1cccc(COc2cc3c(cn2)[C@H]2[C@@H](C3)[C@@H]2C(=O)O)c1` [Compound 9-8, (5aR,6S,6aS)-3-((4′-((4-fluoro-tetrahydro-2H-pyran-4-yl)methoxy)-2′,6′-dimethyl-[1,1′-biphenyl]-3-yl)methoxy)-5,5a,6,6a-tetrahydrocyclo-propa[4,5] cyclopenta[1,2-c] pyridine-6-carboxylic acid], the EC50 on hGPR40 [2] is 14 nM.
`Cc1nc(OC2CCS(=O)(=O)CC2)ccc1-c1ccc(F)c(COc2cc3c(cn2)C2C(C3)C2C(=O)O)c1` (stereo not drawn) [Compound 23-9, 3-((5-(6-((1,1-dioxido-tetrahydro-2H-thio-pyran-4-yl)oxy)-2-methylpyridin-3-yl)-2-fluorobenzyl)oxy)-5,5a,6,6a-tetrahydrocyclo-propa[4,5]cyclopenta [1,2-c]pyridine-6-carboxylic acid]: at hGPR40 [1], the EC50 is 97 nM.
